Results published in patent US20230285598A1, “SULFOXONIUM YLIDE DERIVATIVES AS PROBES FOR CYSTEINE PROTEASE” (Takeda Pharmaceutical Company Limited, priority 2018, published 2023).

Tests used:
[1] = target: cathepsin X (Mus musculus, UniProt Q9WUU7); assay: Confocal microscopy of kidney cryosections after in vivo probe administration
Method: Kidney tissues from mice that received sCy5-Nle-SY (or vehicle control) above were fixed overnight in 4% paraformaldehyde in PBS followed by overnight cryoprotection in 30% sucrose. Tissues were embedded in OCT, frozen on dry ice, and sectioned at 10 µm. Immunostaining for cathepsin X was carried out according to standard protocols. In brief, sections were air dried, fixed in cold acetone for 10 minutes, air dried again, and then rehydrated in PBS. Sections were blocked in PBS containing 3% normal horse serum with 0.1% Triton X-100. Goat anti-cathepsin X was added at 1:100 in blocking buffer overnight at 4° C. Sections were then washed, and secondary antibody, donkey anti-goat-AlexaFluor594 was added at 1:500 for 1 hour at room temperature. Sections were stained with DAPI for 5 minutes, washed, and mounted with ProLong Diamond. Staining was analyzed using a Leica SP8 inverted confocal microscope.
Additionally, after in vivo probe administration, kidney cryosections from sCy5-Nle-SY-injected mice or no-probe control were prepared and analyzed by confocal microscopy for sCy5 fluorescence (red) or cathepsin X immunoreactivity (green) along with DAPI (blue) to visualize nuclei. […] Thus, sCy5-Nle-SY could be used to distinguish active cathepsin X relative to total cathepsin X in tissues after in vivo administration.

[2] = target: cathepsin X (Homo sapiens, UniProt Q9UBR2); assay: Labeling of human oral squamous cell carcinoma tissue lysates, in-gel fluorescence; format: biochemical; set-up: Tissues were lysed by sonication in citrate buffer and supernatants were cleared by centrifugation; from tissue; host or cells: human oral squamous cell carcinoma biopsies and patient-matched normal oral mucosa; conditions: °C5 µM for 20 minutes; 80 µg protein
cathepsin X (Homo sapiens, UniProt Q9UBR2), sequence (Q9UBR2 62-303): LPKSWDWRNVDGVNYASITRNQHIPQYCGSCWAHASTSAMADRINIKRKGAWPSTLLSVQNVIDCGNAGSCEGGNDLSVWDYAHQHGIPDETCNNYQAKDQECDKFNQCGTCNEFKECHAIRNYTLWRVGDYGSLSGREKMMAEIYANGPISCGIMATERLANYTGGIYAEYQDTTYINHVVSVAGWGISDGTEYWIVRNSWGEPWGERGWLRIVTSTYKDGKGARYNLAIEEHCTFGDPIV
Text: To investigate the ability of sCy5-,Nle-SY to label cathepsin X in human tissues, biopsies that were obtained from patients with oral squamous cell carcinoma were used. Normal oral mucosal tissues that were biopsied from the contralateral side of the tongues of the same patients were used as controls.
The human oral squamous cell carcinomas or patient-matched normal oral mucosa were biopsied according to protocols approved by the Institutional Review Board at the New York University Oral Cancer Centre. Biopsies were immediately snap-frozen and stored at -80° C. Tissues were lysed by sonication in citrate buffer and supernatants were cleared by centrifugation. Total protein concentration was assessed by BCA assay and 80 µg were labelled with Cy5-Nle-SY: The lysates prepared from the oral squamous cell carcinoma tissue or patient-matched normal oral mucosa were incubated with sCy5-Nle-SY (°C5 µM for 20 minutes) and labeling was analyzed by in-gel fluorescence (fluorescent SDS-PAGE). Samples were also immunoblotted to determine total cathepsin X expression (n=10). Additionally, the sCy5-Nle-SY-labeled cancer lysates were immunoprecipitated with a cathepsin X-specific antibody to verify the identity of the labeled protein.

cathepsin X (Mus musculus, UniProt Q9WUU7), sequence (Q9WUU7 64-306): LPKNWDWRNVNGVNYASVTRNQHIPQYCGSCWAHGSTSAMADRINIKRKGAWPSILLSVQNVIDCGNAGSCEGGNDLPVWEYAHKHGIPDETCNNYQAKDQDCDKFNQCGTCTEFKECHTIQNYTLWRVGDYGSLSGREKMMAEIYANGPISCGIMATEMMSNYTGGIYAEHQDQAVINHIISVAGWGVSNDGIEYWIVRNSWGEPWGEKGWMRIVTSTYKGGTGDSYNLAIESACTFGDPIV

With `CCCC[C@H](NC(=O)CCCCCN1/C(=C/C=C/C=C/C2=[N+](CC)c3ccc(S(=O)(=O)[O-])cc3C2(C)C)C(C)(C)c2cc(S(=O)(=O)O)ccc21)C(=O)C=S(C)(C)=O` [sCy5-Nle-SY] the “sCy5 fluorescence in kidney cryosections” value ([1]; after in vivo probe administration) was “Strong punctate sCy5 fluorescence was observed”, the “overlap of sCy5 signal with cathepsin X immunoreactivity” value ([1]; kidney cryosections after in vivo probe administration) was “signal largely overlapped with immunoreactive cathepsin X” and the “labeling of cathepsin X in human oral squamous cell carcinoma lysates” value [2] was “clear and selective labeling of cathepsin X was observed”.
